Values joined by “and” are separate entries in the source; they are usually repeats but may differ in a detail not shown here. Identical values can stand only once. Each block holds one compound with its values, some of them ahead of it.
Experiments:
[1] = molecular target: T1, Bovine Pancreatic Trypsin (Bos taurus, UniProt P00760); assay: Dry-phase analytical element for trypsin detection, fluorescence under 365 nm UV; assay type: biochemical; conditions: within one minute
T1 construct: purchased Calbiochem 6502; host or cells: bovine pancreas
T1 sequence (P00760 24-246): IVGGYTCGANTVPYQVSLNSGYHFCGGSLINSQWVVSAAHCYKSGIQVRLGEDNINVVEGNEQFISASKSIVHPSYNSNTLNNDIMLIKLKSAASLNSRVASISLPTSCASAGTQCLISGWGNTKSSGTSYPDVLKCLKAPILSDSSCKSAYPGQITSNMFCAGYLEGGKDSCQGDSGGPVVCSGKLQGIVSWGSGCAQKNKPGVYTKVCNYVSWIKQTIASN
Procedure: (§1) Reagent strips were made according to the following procedure: Filter paper (240 C grade from Ahlstrom Inc.) was saturated with the first dip solution and dried at ambient temperature for 2 hours, then at 110° C. for 5 minutes. The resultant paper was saturated with the second dip solution and dried for about 1 minute at 60° C. to form the completed, white reagent paper. The paper was then cut into pads, which were 0.25 inch×0.25 inches square.
(§2) A. Composition of the First Dip:
• a. Water (24.55 mL) • b. Ethylene glycol bis (β-aminoethyl ether) N,N,N′,N′-tetra-acetic acid (EGTA) (0.06 g) • c. Plasdone (PVP K30 from Sigma-Aldrich) (0.876 g) • d. MgSO4 (1.08 g) B. Composition of the Second Dip: • a. Acetone (9.3 mL) • b. Acetic acid (0.108 mL) • c. Example 5 trypsin substrate (7-(Nα-tosyl-NG-nitro-L-argininyloxy)-4-methylcoumarin, 5.0 mg)
Identical pads were separately wetted with 25 μL portions of two different test solutions and viewed under long wavelength (365 nm) ultraviolet light illumination. One test solution was 50 mM pH=7 phosphate buffer (control solution) and the second was 50 mM pH=7 phosphate buffer containing 10,000 U/mL of bovine pancreatic trypsin (test solution).

trypsin = molecular target: T2, trypsin (Bos taurus, UniProt P00760); assay: Modified liquid assay with reagent pads, rate of fluorescent emission increase; assay type: biochemical, bovine; conditions: pH=7 buffer, excitation 335 nm
T2 sequence (P00760 24-246): T1 sequence (P00760 24-246)
Procedure: Trypsin concentrations may be instrumentally determined with the reagent pads in a modified liquid assay. Three reagent pads are extracted with 2.0 mL of 50 mM pH=7 buffer containing 0-20 u/mL of trypsin. Fluorescent emission at 385 nm is measured with a Perkin-Elmer Model LS-5 fluorescence spectrophotometer using excitation at 335 nm, and is reported in luminescence units (LU). The rate of increase of emission at 385 nm was determined graphically from the plot of LU vs. time output by the instrument.

[2] = molecular target: T1, Bovine Pancreatic Trypsin; assay: Dry-phase analytical element (reagent strip) for UTI measurement, decode from reflectance; assay type: biochemical; conditions: reflectance at 15 and 60 seconds; for decode, Negative Sample: Negative Sample = Water, substrate 1.25 mM in second dip; for decode, Positive Sample: Positive Sample = Water with 200 IU/mL urine trypsin inhibitor (ulinastatin)
Procedure: Reagent strips were made according to the following procedure: Filter paper (240 C grade from Ahlstrom Inc.) was saturated with the first dip solution and dried for 2 minutes at 80° C. and 4 minutes at 60° C. The resultant paper was then saturated with the second dip solution and dried for 6 minutes at 50° C. to form the completed reagent paper. Adhesive ([…] from 3M Inc.) was applied to the reagent paper and it was affixed to a polystyrene handle in the form of pads, which were 0.20 inch×0.20 inches square. A. Composition of the First Dip: • a. Water • b. Bicine Buffer (600 mM) • c. Ethylene glycol bis (β-aminoethyl ether) N,N,N',N'-tetra-acetic acid (EGTA) (5.1 mM) • d. Plasdone (PVP K30 from Sigma-Aldrich) (1.75% by weight) • e. MgSO4 (660 mM) • f. Bovine Pancreatic Trypsin (Calbiochem Cat. No. 6502) (272 units/mL) • g. Adjust to pH 8.00±0.02 with 1N NaOH. B. Composition of the Second Dip: • a. Acetone • b. […] KOK-10071 polymer (from Bayer Corporation) (0.1% by weight) Data were obtained by dipping the strips into the samples set out in Table 1 and placing them in a […] 50 spectrometer from Bayer Diagnostics to collect data at 15 and 60 seconds after dipping. Decode values were calculated using the equation: decode={[(B15+G15)-(B60+G60)]/(B15+G15)}*1000 Where: • B15 is the reflectance of the blue wavelength at 15 seconds, • B60 is the reflectance of the blue wavelength at 60 seconds, • G15 is the reflectance of the green wavelength at 15 seconds, and • […] is the reflectance of the green wavelength at 60 seconds.

[3] = molecular target: T1, Bovine Pancreatic Trypsin; assay: Dry-phase analytical element for trypsin detection, colour with MMBD diazonium salt; assay type: biochemical; conditions: within one minute
Procedure: as §1, §2
• a. Water (25.0 mL) • b. Ethylene glycol bis (β-aminoethyl ether) N,N,N′,N′-tetra-acetic acid (EGTA) (0.06 g) • c. Plasdone (PVP K30 from Sigma-Aldrich) (0.438 g) • d. MgSO4 (1.08 g) B. Composition of the Second Dip: • a. Acetone (7.75 mL) • b. Example 3 trypsin substrate (4-(Nα-tosyl-NG-nitro-L-argininyloxy)-2-phenyl-5H-thiazole, 3.1 mg) • c. 2-Methoxy-4-morpholinobenzene diazonium chloride, zinc chloride double salt (MMBD) (diazonium coupling agent) (2.5 mg)
Identical pads were separately wetted with 25 μL portions of two different test solutions. One test solution was 50 mM pH=8 phosphate buffer (control solution) and the second was 50 mM pH=8 phosphate buffer containing 10,000 U/mL of bovine pancreatic trypsin (test solution).

Structure (SMILES): Cc1ccc(S(=O)(=O)N[C@@H](CCCNC(=N)N[N+](=O)[O-])C(=O)Oc2ccc3c(C)cc(=O)oc3c2)cc1 [Example 5, 7-(Nα-tosyl-NG-nitro-L-argininyloxy)-4-methylcoumarin]
pad fluorescence, test solution ([1]; 50 mM pH=7 phosphate buffer containing 10,000 U/mL bovine pancreatic trypsin): fluorescing brightly
pad fluorescence, control solution ([1]; 50 mM pH=7 phosphate buffer without trypsin): remained dull and non-fluorescent
Rate of 385 nm emission increase (trypsin; Trypsin concentration 0 U/mL): 0.36 LU/mm
Rate of 385 nm emission increase (trypsin; Trypsin concentration 5 U/mL): 1.21 LU/mm and 2.35 LU/mm
Rate of 385 nm emission increase (trypsin; Trypsin concentration 10 U/mL): 2.38 LU/mm and 2.08 LU/mm
Rate of 385 nm emission increase (trypsin; Trypsin concentration 20 U/mL): 3.75 LU/mm

Structure (SMILES): Cc1ccc(S(=O)(=O)N[C@@H](CCCNC(N)=N[N+](=O)[O-])C(=O)Oc2c[nH]c(-c3ccccc3)c2)cc1 [Example 1, 3-(Nα-tosyl-NG-nitro-L-argininyloxy)-5-phenylpyrrole]
decode, Negative Sample [2]: 474
decode, Positive Sample [2]: 212

Structure (SMILES): Cc1ccc(S(=O)(=O)N[C@@H](CCCNC(N)=N[N+](=O)[O-])C(=O)Oc2csc(-c3ccccc3)n2)cc1 [Example 3, 4-(Nα-tosyl-NG-nitro-L-argininyloxy)-2-phenyl-5H-thiazole]
pad colour, test solution ([3]; 50 mM pH=8 phosphate buffer containing 10,000 U/mL bovine pancreatic trypsin): turned blue
pad colour, control solution ([3]; 50 mM pH=8 phosphate buffer without trypsin): remained white

decode, Negative Sample [2]: 61
decode, Positive Sample [2]: 30
Structure (SMILES): Cc1ccc(S(=O)(=O)N=C(N)NCCC[C@H](NS(=O)(=O)c2ccc(C)cc2)C(=O)Oc2c[nH]c(-c3ccccc3)c2)cc1 [Example 4, 3-(Nα-tosyl-NG-tosyl-L-argininyloxy)-5-phenylpyrrole]

Structure (SMILES): Cc1ccc(S(=O)(=O)NC(CCCN=C(N)N[N+](=O)[O-])C(=O)Oc2c[nH]c3ccccc23)cc1 [Example 2, 3-(Nα-tosyl-NG-nitro-L-argininyloxy)indole]
decode, Negative Sample [2]: 422
decode, Positive Sample [2]: 168

Source: patent US6955921B2, “Trypsin substrate and diagnostic device, and method of using same” (Bayer Corporation, priority 2001, dated 2005)
